“And” between values parts separate entries of the source, which are not always exact repeats. Identical values can stand only once.
Columns and labels:
IPF patients [1] = test: Phase II clinical trial in IPF patients: change from baseline in Forced Vital Capacity (FVC) over 12 weeks (MMRM); format: in vivo, human; conditions: 18 mg b.i.d.
IPF patients [2] = test: Phase II clinical trial in IPF patients: completion / premature discontinuation of observation and treatment period; format: in vivo, human; conditions: 18 mg b.i.d.
Protocol: The participants were divided into 2 groups by chance (the “active agent group” and the “placebo group”). […] One 12 mg placebo tablet and one 6 mg placebo tablet (both containing no active ingredient, see Table 1) was administered orally to the patients of the second group twice daily (b.i.d.).
The “active agent group” and the “placebo group” were further distributed to two different groups regarding background medication: the “AF-group” (“antifibrotic background medication group”) and the “Non-AF-group” (“no antifibrotic background medication group”). […] The combination of both nintedanib and pirfenidone as background medication was not allowed in the “AF-group”.
The trial was a randomised, double-blind, placebo-controlled parallel group study.

[3] = AF-group (antifibrotic background), listed as Comp. of Form. III
[4] = AF-group (antifibrotic background), listed as active agent
[5] = AF-group, nintedanib background
[6] = AF-group, pirfenidone background
[7] = pooled background therapy (Non-AF+AF)
[8] = AF-group (antifibrotic background)

[O-][S@+]1CCc2nc(N3CCC(c4ncc(Cl)cn4)CC3)nc(NC3(CO)CCC3)c21 [Comp. of form. III]
Adjusted mean change from baseline in FVC to week 12 (MMRM) (IPF patients [1]; [3]): 2.72 mL | Adjusted mean difference vs. Placebo in change from baseline in FVC to week 12 (MMRM) (IPF patients [1]; [3]): 80.4 mL and 80.42 mL | Adjusted mean change from baseline in FVC to week 12 (MMRM) (IPF patients [1]; [4]): +2.72 ml | Adjusted mean difference vs. Placebo in change from baseline in FVC to week 12 (MMRM) (IPF patients [1]; [4]): 80.42 mL | Adjusted mean change from baseline in FVC to week 12 (MMRM) (IPF patients [1]; [5]): 23.41 mL | Adjusted mean difference vs. Placebo in change from baseline in FVC to week 12 (MMRM) (IPF patients [1]; [5]): 105.43 mL | Week 12 Mean FVC (IPF patients [1]; [5]): 2787.37 mL | Adjusted mean change from baseline in FVC to week 12 (MMRM) (IPF patients [1]; AF-group, nintedanib background, listed as PDE4-inhibitor of formula III): +23.41 ml | Adjusted mean change from baseline in FVC to week 12 (MMRM) (IPF patients [1]; [6]): -18.76 mL | Adjusted mean difference vs. Placebo in change from baseline in FVC to week 12 (MMRM) (IPF patients [1]; [6]): 61.30 mL | Week 12 Mean FVC (IPF patients [1]; [6]): 2879.35 mL | Adjusted mean change from baseline in FVC to week 12 (MMRM) (IPF patients [1]; AF-group, pirfenidone background, listed as PDE4-inhibitor of formula III): -18.67 mL | Adjusted mean change from baseline in FVC to week 12 (MMRM) (IPF patients [1]; Non-AF-group): 6.10 mL | Adjusted mean difference vs. Placebo in change from baseline in FVC to week 12 (MMRM) (IPF patients [1]; Non-AF-group): 101.7 mL and 101.72 mL | Adjusted mean difference vs. Placebo in change from baseline in FVC to week 12 (MMRM) (IPF patients [1]; Non-AF-group, listed as PDE4-inhibitor of formula III): 101.72 mL | Adjusted mean difference vs. Placebo in change from baseline in FVC to week 12 (MMRM) (IPF patients [1]; Non-AF-group, listed as active agent): 101.72 mL | Adjusted mean change from baseline in FVC to week 12 (MMRM) (IPF patients [1]; [7]): 4.59 mL | Adjusted mean difference vs. Placebo in change from baseline in FVC to week 12 (MMRM) (IPF patients [1]; [7]): 88.38 mL | Adjusted mean change from baseline in FVC to week 12 (MMRM) (IPF patients [1]; pooled background therapy (Non-AF+AF), listed as active agent): -4.59 mL | Not completed planned treatment period (premature discontinuation), patients % (IPF patients [2]; [8]): 20.4% | Not completed planned treatment period (premature discontinuation), patients N (IPF patients [2]; [8]): 10 | Observation period not completed: Death, patients % (IPF patients [2]; [8]): 2.0% | Observation period not completed: Death, patients N (IPF patients [2]; [8]): 1 | Treatment period not completed: Adverse Event, patients % (IPF patients [2]; [8]): 20.4% | Treatment period not completed: Adverse Event, patients N (IPF patients [2]; [8]): 10 | Not completed planned treatment period (premature discontinuation), patients % (IPF patients [2]; Non-AF-group): 10.4% | Not completed planned treatment period (premature discontinuation), patients N (IPF patients [2]; Non-AF-group): 5 | Observation period not completed: Death, patients % (IPF patients [2]; Non-AF-group): 2.1% | Observation period not completed: Death, patients N (IPF patients [2]; Non-AF-group): 1 | Treatment period not completed: Adverse Event, patients % (IPF patients [2]; Non-AF-group): 6.3% | Treatment period not completed: Adverse Event, patients N (IPF patients [2]; Non-AF-group): 3

Source: patent US20230190754A1, “Therapeutic combinations for the treatment of Progressive Fibrosing interstitial lung diseases” (Boehringer Ingelheim International GmbH, priority 2021, published 2023)
